In ChEMBL document CHEMBL4800729 (2021):

Columns and labels:
[1] = target: Protein kinase C eta type (Homo sapiens) (UniProt P24723); test: PKCeta(h) Millipore kinase panel; conditions: Compound concentration 1.0 uM
[2] = target: Serine/threonine-protein kinase 17B (Homo sapiens) (UniProt O94768); test: DRAK2(h) Millipore kinase panel; conditions: Compound concentration 1.0 uM
[3] = target: 5-hydroxytryptamine receptor 2B (Homo sapiens, UniProt P41595); conditions: Compound concentration 10.0 uM
[4] = target: Tribbles homolog 2 (Homo sapiens) (UniProt Q92519); test: TRB2(h) Millipore kinase panel; conditions: Compound concentration 1.0 uM
[5] = target: Serine/threonine-protein kinase SIK2 (Homo sapiens) (UniProt Q9H0K1); test: SIK2(h) Millipore kinase panel; conditions: Compound concentration 1.0 uM
[6] = target: Ribosomal protein S6 kinase alpha-5 (Homo sapiens) (UniProt O75582); test: MSK1(h) Millipore kinase panel; conditions: Compound concentration 1.0 uM
[7] = target: Phosphatidylinositol 4-phosphate 5-kinase type-1 alpha (Homo sapiens) (UniProt Q99755); test: PIP5K1a(h) Millipore kinase panel; conditions: Compound concentration 1.0 uM
[8] = target: Eukaryotic translation initiation factor 2-alpha kinase 3 (Homo sapiens) (UniProt Q9NZJ5); test: PEK(h) Millipore kinase panel; conditions: Compound concentration 1.0 uM
[9] = target: PAS domain-containing serine/threonine-protein kinase (Homo sapiens) (UniProt Q96RG2); test: PASK(h) Millipore kinase panel; conditions: Compound concentration 1.0 uM
[10] = target: Calcium/calmodulin-dependent protein kinase kinase 1 (Homo sapiens) (UniProt Q8N5S9); test: CaMKK1(h) Millipore kinase panel; conditions: Compound concentration 1.0 uM
[11] = target: Protein kinase C epsilon type (Homo sapiens) (UniProt Q02156); test: PKCepsilon(h) Millipore kinase panel; conditions: Compound concentration 1.0 uM
[12] = target: Rhodopsin kinase GRK1 (Homo sapiens) (UniProt Q15835); test: GRK1(h) Millipore kinase panel; conditions: Compound concentration 1.0 uM
[13] = target: Serine/threonine-protein kinase Chk1 (Homo sapiens) (UniProt O14757); test: CHK1(h) Millipore kinase panel; conditions: Compound concentration 1.0 uM
[14] = target: 5-hydroxytryptamine receptor 2A (Homo sapiens) (UniProt P28223); conditions: Compound concentration 10.0 uM
[15] = target: Carbonic anhydrase 2 (Homo sapiens) (UniProt P00918); test: Inhibition of Carbonic Anhydrase II at compound concentration of 10.0 uM in the Eurofins-Panlabs enzyme assay (Eurofins_assay_112020); set-up: substrate with concentration; conditions: Compound concentration 10.0 uM
[16] = target: mTOR/FKBP12A/FKBP12B (Homo sapiens) (UniProt P62942+P68106+P42345); test: mTOR FKBP12(h) Millipore kinase panel; format: protein-complex assay; conditions: Compound concentration 1.0 uM
[17] = target: Acetylcholinesterase (Homo sapiens) (UniProt P22303); conditions: Compound concentration 10.0 uM
[18] = target: CDK18/Cyclin Y (Homo sapiens) (UniProt Q07002+Q8ND76); test: CDK18/cyclinY(h) Millipore kinase panel; format: protein-complex assay; conditions: Compound concentration 1.0 uM
[19] = target: Glycogen synthase kinase-3 beta (Homo sapiens) (UniProt P49841); test: GSK3beta(h) Millipore kinase panel; conditions: Compound concentration 1.0 uM
[20] = target: Tyrosine-protein kinase BTK (Homo sapiens) (UniProt Q06187); test: BTK(h) Millipore kinase panel; conditions: Compound concentration 1.0 uM
[21] = target: Serine/threonine-protein kinase 26 (Homo sapiens) (UniProt Q9P289); test: MST4(h) Millipore kinase panel; conditions: Compound concentration 1.0 uM
[22] = target: Beta-3 adrenergic receptor (Homo sapiens) (UniProt P13945); conditions: Compound concentration 10.0 uM
[23] = target: Insulin receptor (Homo sapiens) (UniProt P06213); test: IR(h),activated Millipore kinase panel; conditions: Compound concentration 1.0 uM
[24] = target: Serine/threonine-protein kinase Nek3 (Homo sapiens) (UniProt P51956); test: NEK3(h) Millipore kinase panel; conditions: Compound concentration 1.0 uM
[25] = target: Sodium-dependent noradrenaline transporter (Homo sapiens) (UniProt P23975); conditions: Compound concentration 10.0 uM
[26] = target: D(1A) dopamine receptor (Homo sapiens, UniProt P21728); conditions: Compound concentration 10.0 uM
[27] = target: PI3-kinase p110-alpha/p85-alpha (Homo sapiens) (UniProt P27986+P42336); test: PI3 Kinase (p110a/p85a)(h) Millipore kinase panel; format: protein-complex assay; conditions: Compound concentration 1.0 uM
[28] = target: 5'-AMP-activated protein kinase catalytic subunit alpha-1 (Homo sapiens) (UniProt Q13131); test: AMPKalpha1(h) Millipore kinase panel; conditions: Compound concentration 1.0 uM
[29] = target: T1, 5-hydroxytryptamine receptor 1A (Homo sapiens) (UniProt P08908); conditions: Compound concentration 10.0 uM
T1 sequence (whole entry): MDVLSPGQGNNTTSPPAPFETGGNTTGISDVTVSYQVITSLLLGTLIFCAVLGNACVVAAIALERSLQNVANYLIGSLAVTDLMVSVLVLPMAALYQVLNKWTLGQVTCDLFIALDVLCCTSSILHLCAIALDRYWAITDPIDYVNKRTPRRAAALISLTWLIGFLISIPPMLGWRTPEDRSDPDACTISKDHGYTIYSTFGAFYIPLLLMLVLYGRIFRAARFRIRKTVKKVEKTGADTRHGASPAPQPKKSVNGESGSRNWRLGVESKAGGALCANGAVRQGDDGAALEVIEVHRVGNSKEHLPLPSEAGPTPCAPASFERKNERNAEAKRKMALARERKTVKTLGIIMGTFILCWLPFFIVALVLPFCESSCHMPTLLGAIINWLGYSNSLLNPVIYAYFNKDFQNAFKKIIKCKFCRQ

[30] = target: cGMP-dependent protein kinase 2 (Homo sapiens) (UniProt Q13237); test: PRKG2(h) Millipore kinase panel; conditions: Compound concentration 1.0 uM
[31] = target: 5-hydroxytryptamine receptor 1E (Homo sapiens) (UniProt P28566); conditions: Compound concentration 10.0 uM
[32] = target: Ribosomal protein S6 kinase alpha-1 (Homo sapiens) (UniProt Q15418); test: Rsk1(h) Millipore kinase panel; conditions: Compound concentration 1.0 uM
[33] = target: 3-hydroxy-3-methylglutaryl-coenzyme A reductase (Homo sapiens) (UniProt P04035); test: Inhibition of HMG-CoA Reductase at compound concentration of 10.0 uM in the Eurofins-Panlabs enzyme assay (Eurofins_assay_124010); set-up: substrate with concentration; conditions: Compound concentration 10.0 uM
[34] = target: Type-1 angiotensin II receptor (Homo sapiens) (UniProt P30556); conditions: Compound concentration 10.0 uM
[35] = target: Mitogen-activated protein kinase 1 (Homo sapiens) (UniProt P28482); test: MAPK1(h) Millipore kinase panel; conditions: Compound concentration 1.0 uM
[36] = target: D(2) dopamine receptor (Homo sapiens) (UniProt P14416); conditions: Compound concentration 10.0 uM
[37] = target: MAP kinase-activated protein kinase 3 (Homo sapiens) (UniProt Q16644); test: MAPKAP-K3(h) Millipore kinase panel; conditions: Compound concentration 1.0 uM
[38] = target: Interleukin-1 receptor-associated kinase 1 (Homo sapiens) (UniProt P51617); test: IRAK1(h) Millipore kinase panel; conditions: Compound concentration 1.0 uM
[39] = target: Serine/threonine-protein kinase PLK1 (Homo sapiens) (UniProt P53350); test: Plk1(h) Millipore kinase panel; conditions: Compound concentration 1.0 uM
[40] = target: Homeodomain-interacting protein kinase 3 (Homo sapiens) (UniProt Q9H422); test: HIPK3(h) Millipore kinase panel; conditions: Compound concentration 1.0 uM
[41] = target: Tyrosine-protein kinase CSK (Homo sapiens) (UniProt P41240); test: CSK(h) Millipore kinase panel; conditions: Compound concentration 1.0 uM

Measured: inhibition

Serine/threonine-protein kinase 26 (Homo sapiens), sequence (Q9P289 2-416 limits assumed): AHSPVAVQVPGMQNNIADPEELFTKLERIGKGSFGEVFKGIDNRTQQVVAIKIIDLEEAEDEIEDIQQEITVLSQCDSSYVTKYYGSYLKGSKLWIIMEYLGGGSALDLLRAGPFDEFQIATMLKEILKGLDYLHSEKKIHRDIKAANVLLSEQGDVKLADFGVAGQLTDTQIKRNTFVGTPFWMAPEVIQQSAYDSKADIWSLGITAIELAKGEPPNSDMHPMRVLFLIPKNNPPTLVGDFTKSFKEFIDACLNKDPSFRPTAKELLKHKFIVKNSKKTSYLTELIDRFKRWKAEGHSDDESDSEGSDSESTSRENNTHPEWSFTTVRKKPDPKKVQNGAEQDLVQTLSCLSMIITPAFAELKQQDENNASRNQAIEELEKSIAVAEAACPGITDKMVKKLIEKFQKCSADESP
Ribosomal protein S6 kinase alpha-5 (Homo sapiens), sequence (O75582 whole entry, looked up): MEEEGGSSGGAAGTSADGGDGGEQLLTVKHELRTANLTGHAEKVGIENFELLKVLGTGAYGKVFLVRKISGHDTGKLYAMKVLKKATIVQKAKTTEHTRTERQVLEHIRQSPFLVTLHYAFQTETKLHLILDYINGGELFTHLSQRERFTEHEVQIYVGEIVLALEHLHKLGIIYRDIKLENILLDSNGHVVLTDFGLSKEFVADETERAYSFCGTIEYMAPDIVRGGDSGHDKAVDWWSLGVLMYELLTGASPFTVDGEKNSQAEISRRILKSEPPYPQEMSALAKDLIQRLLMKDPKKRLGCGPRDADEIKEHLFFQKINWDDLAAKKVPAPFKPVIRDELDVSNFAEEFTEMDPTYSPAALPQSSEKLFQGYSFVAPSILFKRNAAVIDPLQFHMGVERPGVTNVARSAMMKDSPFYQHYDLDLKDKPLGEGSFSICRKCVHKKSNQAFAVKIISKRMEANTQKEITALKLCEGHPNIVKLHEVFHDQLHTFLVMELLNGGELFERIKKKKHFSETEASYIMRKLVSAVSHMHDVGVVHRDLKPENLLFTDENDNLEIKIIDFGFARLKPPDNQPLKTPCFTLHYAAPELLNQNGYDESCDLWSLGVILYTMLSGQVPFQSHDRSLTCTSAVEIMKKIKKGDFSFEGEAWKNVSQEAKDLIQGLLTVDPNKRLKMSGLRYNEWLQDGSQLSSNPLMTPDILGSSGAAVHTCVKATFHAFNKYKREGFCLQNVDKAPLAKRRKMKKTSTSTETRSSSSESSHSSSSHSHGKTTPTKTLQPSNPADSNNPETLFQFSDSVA
Serine/threonine-protein kinase Nek3 (Homo sapiens), sequence (P51956 whole entry): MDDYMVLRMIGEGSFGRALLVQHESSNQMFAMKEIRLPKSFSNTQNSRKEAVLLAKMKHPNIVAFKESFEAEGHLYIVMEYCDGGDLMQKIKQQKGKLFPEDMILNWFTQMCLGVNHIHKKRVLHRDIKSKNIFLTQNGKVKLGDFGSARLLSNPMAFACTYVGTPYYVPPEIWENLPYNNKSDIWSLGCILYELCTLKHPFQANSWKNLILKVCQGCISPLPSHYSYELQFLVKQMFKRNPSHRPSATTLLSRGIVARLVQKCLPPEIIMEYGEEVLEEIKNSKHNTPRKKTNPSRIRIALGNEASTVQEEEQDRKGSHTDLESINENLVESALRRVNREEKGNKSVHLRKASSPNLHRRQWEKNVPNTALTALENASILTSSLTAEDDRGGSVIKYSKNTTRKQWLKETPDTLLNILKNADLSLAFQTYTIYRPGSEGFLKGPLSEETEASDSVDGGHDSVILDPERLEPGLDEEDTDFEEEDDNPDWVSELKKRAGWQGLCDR
Homeodomain-interacting protein kinase 3 (Homo sapiens), sequence (Q9H422 whole entry, looked up): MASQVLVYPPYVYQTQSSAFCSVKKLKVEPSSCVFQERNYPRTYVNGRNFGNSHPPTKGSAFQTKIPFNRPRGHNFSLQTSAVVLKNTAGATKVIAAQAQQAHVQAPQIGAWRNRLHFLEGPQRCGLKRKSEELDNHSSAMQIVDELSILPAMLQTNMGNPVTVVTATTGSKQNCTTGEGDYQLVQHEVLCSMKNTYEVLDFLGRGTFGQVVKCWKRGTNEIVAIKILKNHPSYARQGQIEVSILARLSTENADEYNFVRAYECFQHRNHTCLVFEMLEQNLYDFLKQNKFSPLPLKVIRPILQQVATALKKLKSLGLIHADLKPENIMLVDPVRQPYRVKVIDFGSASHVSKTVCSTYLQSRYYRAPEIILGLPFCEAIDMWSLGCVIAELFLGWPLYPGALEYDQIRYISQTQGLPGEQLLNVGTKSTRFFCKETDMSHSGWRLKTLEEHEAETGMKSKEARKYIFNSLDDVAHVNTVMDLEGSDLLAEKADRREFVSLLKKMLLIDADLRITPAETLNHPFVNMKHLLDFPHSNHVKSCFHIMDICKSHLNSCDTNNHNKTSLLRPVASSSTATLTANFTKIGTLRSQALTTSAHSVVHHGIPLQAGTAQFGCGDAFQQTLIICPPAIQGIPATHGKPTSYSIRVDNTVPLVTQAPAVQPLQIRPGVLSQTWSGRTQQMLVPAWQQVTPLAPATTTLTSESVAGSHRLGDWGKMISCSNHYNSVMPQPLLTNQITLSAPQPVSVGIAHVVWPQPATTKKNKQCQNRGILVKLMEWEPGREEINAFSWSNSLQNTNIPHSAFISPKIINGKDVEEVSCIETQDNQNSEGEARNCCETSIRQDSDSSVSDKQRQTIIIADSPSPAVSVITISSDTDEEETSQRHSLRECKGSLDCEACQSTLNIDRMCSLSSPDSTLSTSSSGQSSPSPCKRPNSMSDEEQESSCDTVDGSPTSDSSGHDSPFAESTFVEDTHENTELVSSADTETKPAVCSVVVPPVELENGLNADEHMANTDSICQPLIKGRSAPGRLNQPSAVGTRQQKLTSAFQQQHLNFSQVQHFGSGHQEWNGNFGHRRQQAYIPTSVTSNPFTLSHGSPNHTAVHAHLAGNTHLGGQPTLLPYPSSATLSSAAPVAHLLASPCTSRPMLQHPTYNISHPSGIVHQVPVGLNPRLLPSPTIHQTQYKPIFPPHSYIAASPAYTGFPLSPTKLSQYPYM
Rhodopsin kinase GRK1 (Homo sapiens), sequence (Q15835 whole entry): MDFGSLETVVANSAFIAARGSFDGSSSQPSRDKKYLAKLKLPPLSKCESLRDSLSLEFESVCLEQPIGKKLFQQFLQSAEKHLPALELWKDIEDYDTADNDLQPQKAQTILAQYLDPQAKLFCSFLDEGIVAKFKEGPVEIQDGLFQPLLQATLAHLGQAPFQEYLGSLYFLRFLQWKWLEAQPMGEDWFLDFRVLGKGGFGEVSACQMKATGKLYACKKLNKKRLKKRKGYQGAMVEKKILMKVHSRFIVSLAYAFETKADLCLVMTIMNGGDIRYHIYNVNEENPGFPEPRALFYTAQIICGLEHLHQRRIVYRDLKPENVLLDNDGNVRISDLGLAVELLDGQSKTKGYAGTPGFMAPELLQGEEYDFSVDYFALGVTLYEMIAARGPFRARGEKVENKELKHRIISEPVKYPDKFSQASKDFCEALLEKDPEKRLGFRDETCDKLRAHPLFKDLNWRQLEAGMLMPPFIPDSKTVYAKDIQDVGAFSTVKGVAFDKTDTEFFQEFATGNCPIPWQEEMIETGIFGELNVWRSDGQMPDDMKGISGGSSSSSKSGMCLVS
Tribbles homolog 2 (Homo sapiens), sequence (Q92519 whole entry): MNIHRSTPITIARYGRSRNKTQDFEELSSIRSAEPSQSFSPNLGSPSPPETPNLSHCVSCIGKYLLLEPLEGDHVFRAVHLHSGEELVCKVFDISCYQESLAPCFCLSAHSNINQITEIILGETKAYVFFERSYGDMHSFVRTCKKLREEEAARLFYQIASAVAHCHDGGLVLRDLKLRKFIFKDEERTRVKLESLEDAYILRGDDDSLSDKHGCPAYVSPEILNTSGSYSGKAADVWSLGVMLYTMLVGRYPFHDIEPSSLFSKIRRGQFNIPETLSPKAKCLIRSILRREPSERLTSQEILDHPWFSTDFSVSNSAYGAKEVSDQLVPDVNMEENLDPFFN
5-hydroxytryptamine receptor 1E (Homo sapiens), sequence (P28566 whole entry): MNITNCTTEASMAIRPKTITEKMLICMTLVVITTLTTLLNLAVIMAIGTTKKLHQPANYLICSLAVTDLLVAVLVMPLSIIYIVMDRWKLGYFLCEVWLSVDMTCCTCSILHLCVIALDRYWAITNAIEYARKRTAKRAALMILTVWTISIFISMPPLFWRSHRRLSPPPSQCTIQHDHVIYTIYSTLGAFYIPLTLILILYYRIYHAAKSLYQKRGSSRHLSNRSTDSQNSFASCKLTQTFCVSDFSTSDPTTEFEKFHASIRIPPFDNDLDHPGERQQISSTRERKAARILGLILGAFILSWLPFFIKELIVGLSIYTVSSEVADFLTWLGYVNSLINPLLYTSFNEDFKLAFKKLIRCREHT
Tyrosine-protein kinase CSK (Homo sapiens), sequence (P41240 2-450 limits assumed): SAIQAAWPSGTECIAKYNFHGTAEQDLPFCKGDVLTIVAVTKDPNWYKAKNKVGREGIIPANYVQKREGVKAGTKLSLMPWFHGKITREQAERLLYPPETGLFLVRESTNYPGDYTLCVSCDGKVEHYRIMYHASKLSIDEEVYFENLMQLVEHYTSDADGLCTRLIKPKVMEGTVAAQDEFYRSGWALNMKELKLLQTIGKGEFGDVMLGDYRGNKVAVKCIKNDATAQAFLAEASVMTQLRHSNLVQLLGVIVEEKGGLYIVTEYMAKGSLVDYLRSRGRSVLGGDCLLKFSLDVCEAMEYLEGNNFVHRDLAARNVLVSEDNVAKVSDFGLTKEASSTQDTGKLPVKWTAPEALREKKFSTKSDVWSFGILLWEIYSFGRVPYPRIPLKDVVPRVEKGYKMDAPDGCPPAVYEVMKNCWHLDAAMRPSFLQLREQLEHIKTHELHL
mTOR/FKBP12A/FKBP12B (Homo sapiens), sequence (P62942 2-108 limits assumed, other chains not shown): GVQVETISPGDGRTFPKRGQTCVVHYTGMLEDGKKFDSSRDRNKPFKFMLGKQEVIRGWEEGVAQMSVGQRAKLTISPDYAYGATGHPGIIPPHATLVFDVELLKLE
mTOR/FKBP12A/FKBP12B (Homo sapiens), sequence (P68106 whole entry partner, other chains not shown): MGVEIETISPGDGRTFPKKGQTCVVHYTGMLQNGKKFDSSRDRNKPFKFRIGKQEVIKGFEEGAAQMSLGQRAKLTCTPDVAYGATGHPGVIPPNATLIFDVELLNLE

CC[C@@H](Nc1c(C#N)c(-c2ccc(-c3cccc(C)c3F)cc2)nc2cnccc12)C(=O)O [BAY-091]
active: [3] 98%
inactive: [1] 3.77% | [2] 7.08% | [4] 0.49% | [5] 3.68% | [6] 1.48% | [7] 10% | [8] 3.26% | [9] 11.1% | [10] 5.03% | [11] -4.26% | [12] 1.52% | [13] 4.56% | [14] -8.43% | [15] -6% | [16] 1.38% | [17] 27% | [18] 10.6% | [19] -0.05% | [20] 12.8% | [21] 5.69% | [22] 16% | [23] 9.43% | [24] 8.41% | [25] 25% | [26] 15% | [27] 11% | [28] -1.91% | [29] -4.91% | [30] 12.7% | [31] 17.2% | [32] -6.03% | [33] -7% | [34] 22% | [35] 6.43% | [36] 13.8% | [37] 5.32% | [38] -3.31% | [39] 4.29% | [40] 4.32% | [41] 6.94%
